We go through 11 compounds from patent publication US20250136568A1, “FUSED HETEROCYCLIC COMPOUNDS AS PI3KALPHA INHIBITORS” (Nanjing Zenshine Pharmaceuticals Co., Ltd., priority 2021, published 2025).

Where two headings read alike, the source gives them in different places.

Test [1] concerns PI3Kα wide type cell line SK-BR-3. Put plainly: Cell Proliferation IC50 Assay (CellTiter-Glo), SK-BR-3. To be noted: Homo sapiens, read-out: IC50 (μM) SK-BR-3. It counts as cell-based. The source says: (§1) PI3Kα H1047R mutation cell line T-47D and MDA-MB-453, E545K mutation cell line MDA-MB-361 and PI3Kα wide type cell line SK-BR-3 were purchased from Cobioer Biotech (cat. no CBP60397, CBP60386, CBP60383 and CBP60413 respectively). The CellTiter-Glo Direct Cell Proliferation Assay Kit was purchased from Prornega (cat. No. G7573)
(§2) For cell proliferation assay in each cell line: • a. Prepare complete medium (R PMI 1640, DMEM or McCoys): Add FBS and appropriate additives according to the information sheet provided by the vendor. Mix gently. • b. Prepare single cell suspension and count the cell numbers and adjust cells to appropriate density. • c. Add 80 μL of cell suspension to 96-well opaque-walled clear bottom plates according to the planned plate layout and place the plates in the CO2 incubator overnight. • d. Prepare intermediate plate: 10 μl of diluted test compounds or staurosporine solution (200×) is added to a 96 deep well plate. Then 390 μl of culture medium without FBS is added to the respective wells. • e. Transfer 20 μL of the solutions from the above intermediate plate to the wells of the plate prepared containing 80 μL of the culture medium and cells. The total dilution is 200 folds. • f. The cells were then incubated at 5% CO2, 37° C. for 72 hours. • g. Equilibrate the plate and its contents to room temperature for approximately 30 minutes. • h. Add 100 μL of CellTiter-Glo reagent to the assay plate • i. Mix contents for 10 minutes on an orbital shaker to induce cell lysis. • j. Allow the plate to incubate at room temperature for 10 minutes to stabilize luminescent signal, • k. Paste the clear bottom with white back seal and record luminescence with Varioskan LUX plate reader.
(§3) Inhibition % and IC50 value were calculated by the formula described below: […]

Test [2] concerns PI3Kα H1047R mutation cell line T-47D. Put plainly: Cell Proliferation IC50 Assay (CellTiter-Glo), T-47D. It counts as cell-based. Particulars: Homo sapiens, read-out: IC50 (μM) T47D.
Text: as §1, §2, §3

Where [3] appears, read: SK-BR-3 (PI3Kα wild type), 72 hours, CellTiter-Glo.
The mark [4] stands for this setting: T47D, 72 h, T47D (H1047R), 72 hours, CellTiter-Glo.
Setting [5] is: T47D (H1047R), 72 hours, CellTiter-Glo.

For the compound `Cc1cc([C@@H](C)Nc2ccccc2C(=O)O)c2oc(-c3ccc(-c4cn(C)cn4)cc3)c(C)c(=O)c2c1` [Example 162, (R)-2-((1-(3,6-dimethyl-2-(4-(1-methyl-1H-imidazol-4-yl)phenyl)-4-oxo-4H-chromen-8-yl)ethyl)amino)benzoic acid], the figures for the half-maximal inhibitory concentration (IC50) in test [1] (setting [3]) and in test [2] (setting [4]) were over 10 µM and 0.23 µM, respectively.
For the compound `Cc1cc([C@@H](C)Nc2ccccc2C(=O)O)c2oc(-c3ccc(-c4cn(C)cn4)nc3)c(C)c(=O)c2c1` [Example 163], the 50% inhibitory concentration (IC50) in test [1] (setting [3]) is over 10 µM; in test [2] (setting [5]), 0.12 µM.
On to `Cc1cc([C@@H](C)Nc2ccccc2C(=O)O)c2oc(-c3ccc(-c4cnn(C)c4)nc3)cc(=O)c2c1` [Example 164, (R)-2-((1-(6-methyl-2-(6-(1-methyl-1H-pyrazol-4-yl)pyridin-3-yl)-4-oxo-4H-chromen-8-yl)ethyl)amino)benzoic acid], for which the figures for the IC50 in test [1] (setting [3]) and in test [2] (setting [4]) were over 10 µM and 0.38 µM, respectively.
For `Cc1cc([C@@H](C)Nc2ccc(Cl)nc2C(=O)O)c2oc(-c3ccc(OCCN(C)C)cc3)c(C)c(=O)c2c1` [Example 165, (R)-6-chloro-3-((1-(2-(4-(2-(dimethylamino)ethoxy)phenyl)-3,6-dimethyl-4-oxo-41-1 chromen-8-yl)ethyl)amino)picolinic acid], the half-maximal inhibitory concentration (IC50) worked out at 4.39 µM in test [1] (setting [3]) and 0.042 µM in test [2] (setting [4]).
As to `Cc1cc([C@@H](C)Nc2ccccc2C(=O)O)c2oc(-c3ccc(OCCN(C)C)cc3)cc(=O)c2c1` [Example 166, (R)-2-((1-(2-(4-(2-(dimethylamino)ethoxy)phenyl)-6-methyl-4-oxo-4H-1-chromen-8-yl)ethyl)amino)benzoic acid], the IC50 in test [1] (setting [3]) is over 10 µM; in test [2] (setting [4]), 0.23 µM.
With `Cc1cc([C@@H](C)Nc2ccccc2C(=O)O)c2oc(-c3ccc(C4CN(C)CCO4)cc3)c(C)c(=O)c2c1` (stereo partly drawn) [Example 167, 2-(((1R)-1-(3,6-dimethyl-2-(4-(4-methylmorpholin-2-yl)phenyl)-4-oxo-4H-chromen-8-yl)ethyl)amino)benzoic acid], the half-maximal inhibitory concentration (IC50) in test [1] (setting [3]) came to 8.34 µM; in test [2] (setting [5]) it was 0.092 µM.
On to `Cc1cc([C@@H](C)Nc2ccccc2C(=O)O)c2oc(-c3ccc(N4CCC[C@H](N(C)C)C4)cc3)c(C)c(=O)c2c1` [Example 168, 2-(((R)-1-(2-(4-((S)-3-(dimethylamino)piperidin-1-yl)phenyl)-3,6-dimethyl-4-oxo-41H-chromen-8-yl)ethyl)amino)benzoic acid], for which the half-maximal inhibitory concentration (IC50) in test [1] (setting [3]) is over 10 µM; in test [2] (setting [4]), 0.092 µM.
For `Cc1cc([C@@H](C)Nc2ccccc2C(=O)O)c2oc(-c3ccc(N4CC[C@H](N(C)C)C4)cc3)c(C)c(=O)c2c1` [Example 169, 2-(((R)-1-(2-(4-((S)-3-(dimethylamino)pyrrolidin-1-yl)phenyl)-3,6-dimethyl-4-oxo-4H-chromen-8-yl)ethyl)amino)benzoic acid], in that order: over 10 µM and 0.11 µM.
For `Cc1cc([C@@H](C)Nc2ccccc2C(=O)O)c2oc(-c3ccc(N4CC(N(C)C)C4)cc3)c(C)c(=O)c2c1` [Example 170, (R)-2-((1-(2-(4-(3-(dimethylamino)azetidin-1-yl)phenyl)-3,6-dimethyl-4-oxo-4H-chromen-8-yl)ethyl)amino)benzoic acid], in that order: over 10 µM and 0.096 µM.
Take `Cc1cc([C@@H](C)Nc2ccccc2C(=O)O)c2oc(-c3ccc(OC4CN(C)C4)cc3)c(C)c(=O)c2c1` [Example 171, (R)-2-((1-(3,6-dimethyl-2-(4-((1-methylazetidin-3-yl)oxy)phenyl)-4-oxo-4H-chromen-8-yl)ethyl)amino)benzoic acid]: the IC50 in test [1] (setting [3]) was over 10 µM; in test [2] (setting [4]) it was 0.072 µM.
Regarding `Cc1cc(C(C)Nc2ccccc2P(=O)(O)O)c2oc(-c3ccc4nn(C)cc4c3)c(C)c(=O)c2c1` (stereo not shown) [Example 176], the 50% inhibitory concentration (IC50) in test [1] (SK-BR-3, 72 h) was over 10 µM; in test [2] (T47D, 72 h), over 10 µM.
